US9868734B2, “Conjugate of benzofuranone and indole or azaindole, and preparation and uses thereof” (Luoda Biosciences, Inc., priority 2013, dated 2018)

Assays:
[1] = system: human hepatocellular carcinoma cell line HepG-2; assay: MTT assay, inhibition of tumor cell growth (HepG2); assay type: cell-based; settings: 72 hours incubation, read-out: IC50 on the tumor cells HepG2
Method: (§1) human hepatocellular carcinoma cell line HepG-2, human lung adenocarcinoma epithelial cell line A549
(§2) Tumor cells were seeded in RPM11640 medium containing 10% calf serum, incubated at 37° C., 5% CO2 in CO2 incubator, and passaged every 2-3 days. Cells at logarithmic growth phase were used for this experiment.
(§3) The cells at logarithmic growth phase were formulated into suspension. The cell viability by trypan blue staining was more than 98%. The cell suspension was divided into several groups: 1 as blank control group (cell suspension plus solvent DMSO); and 2 as experimental groups (cell suspension plus compounds to be tested).
(§4) The drugs were formulated into a stock solution in DMSO, and the concentration of the stock solution was 20 mmol (used within 4 hours). In the experiment, the work solution of the drugs was diluted with RPMI1640 medium containing 10% calf serum under aseptic condition, to a final concentration of […]. The drug concentrations were increased by 2 times (1.25-20 μM).
(§5) The cells in logarithmic growth phase were selected, centrifuged, counted, and formulated into a cell suspension (2.5×10^4/ml) with RPMI1640 medium containing 10% calf serum. The cell suspension were inoculated into 96-well plates at a density of 5000 cells/200 μl per well, incubated for 24 hours at 37° C., 5% CO2. According to the above concentration of the drug, the cells were inoculated to 6 groups (including one control group), with 8 wells per group. After incubating for 72 hours, the viability of cells was measured by MTT assay. The absorbance value (A) was measured with detection wavelength at 540 nm, reference wavelength at 630 nm. The inhibitory rate (I) was calculated by the following equation, where T was the absorbance value of the experimental groups, and C was the absorbance value of the blank control group: I=(1−T/C)×100%
(§6) Equation of regression line was drawn from concentration-inhibitory rate curve, from which the IC50 of tested sample was calculated.

[2] = system: human lung adenocarcinoma epithelial cell line A549; assay: MTT assay, inhibition of tumor cell growth (A549); assay type: cell-based; settings: 72 hours incubation, read-out: IC50 on the tumor cells A549
Method: as §1, §2, §3, §4, §5, §6

Compound: O=C1Nc2ccccc2C1=C1Oc2ccccc2C1=O [Compound 1]
- IC50 [1]: > 100 µM
- IC50 [2]: 40 ± 1.4 µM

Compound: O=C1Nc2c(F)cccc2C1=C1Oc2ccccc2C1=O [Compound 2]
- IC50 [2]: > 100 µM

Compound: CCN1C(=O)C(=C2Oc3ccccc3C2=O)c2ccccc21 [Compound 3]
- IC50 [1]: 26.4 ± 1.1 µM
- IC50 [2]: 21.9 ± 0.9 µM

Compound: CCN1C(=O)C(=C2Oc3ccccc3C2=O)c2cccc(F)c21 [Compound 4]
- IC50 [1]: 31.5 ± 2.9 µM
- IC50 [2]: 9.5 ± 2.1 µM

Compound: CCN1C(=O)C(=C2Oc3ccccc3C2=O)c2cc(Cl)ccc21 [Compound 5]
- IC50 [1]: 87 ± 2.1 µM
- IC50 [2]: 11.5 ± 1 µM

Compound: CCN1C(=O)C(=C2Oc3ccccc3C2=O)c2ccc(Cl)cc21 [Compound 6]
- IC50 [1]: 60 ± 1.7 µM
- IC50 [2]: 11.9 ± 1.4 µM

Compound: CCN1C(=O)C(=C2Oc3ccccc3C2=O)c2cc(C)ccc21 [Compound 7]
- IC50 [1]: 19 ± 1.6 µM
- IC50 [2]: 8 ± 1.2 µM

Compound: CC(C)N1C(=O)C(=C2Oc3ccccc3C2=O)c2ccccc21 [Compound 8]
- IC50 [1]: 32.2 ± 2.4 µM
- IC50 [2]: 10 ± 1.4 µM

Compound: CC(C)N1C(=O)C(=C2Oc3ccccc3C2=O)c2cc(F)ccc21 [Compound 9]
- IC50 [1]: 25 ± 1 µM
- IC50 [2]: 18.5 ± 1.8 µM

Compound: CC(C)N1C(=O)C(=C2Oc3ccccc3C2=O)c2cccc(F)c21 [Compound 10]
- IC50 [1]: 28.5 ± 1.3 µM
- IC50 [2]: 8.1 ± 0.6 µM

Compound: CC(C)N1C(=O)C(=C2Oc3ccccc3C2=O)c2cc(Cl)ccc21 [Compound 11]
- IC50 [1]: 45 ± 1.9 µM
- IC50 [2]: 8.5 ± 1.6 µM

Compound: CC(C)N1C(=O)C(=C2Oc3ccccc3C2=O)c2ccc(Cl)cc21 [Compound 12]
- IC50 [1]: 26 ± 2.7 µM
- IC50 [2]: 14 ± 1.7 µM

Compound: Cc1ccc2c(c1)C(=C1Oc3ccccc3C1=O)C(=O)N2C(C)C [Compound 13]
- IC50 [1]: 42 ± 1.8 µM
- IC50 [2]: 11 ± 1.2 µM

Compound: O=C1C(=C2C(=O)N(Cc3ccccc3)c3ccccc32)Oc2ccccc21 [Compound 14, N1-benzyl-1′-oxo-indirubin]
- IC50 [1]: 24 ± 1.5 µM
- IC50 [2]: 7 ± 1.6 µM

Compound: O=C1C(=C2C(=O)N(Cc3ccccc3)c3ccc(F)cc32)Oc2ccccc21 [Compound 15]
- IC50 [1]: 34 ± 0.9 µM
- IC50 [2]: 7.4 ± 1.7 µM

Compound: O=C1C(=C2C(=O)N(Cc3ccccc3)c3ccc(Cl)cc32)Oc2ccccc21 [Compound 16]
- IC50 [1]: 61 ± 2.9 µM
- IC50 [2]: 16 ± 2 µM

Compound: Cc1ccc2c(c1)C(=C1Oc3ccccc3C1=O)C(=O)N2Cc1ccccc1 [Compound 17]
- IC50 [1]: 25 ± 2.7 µM
- IC50 [2]: 8 ± 2.3 µM

Compound: CCN1C(=O)C(=C2Oc3ccccc3C2=O)c2cc(F)ccc21 [Compound 18]
- IC50 [1]: 17 ± 1.9 µM
- IC50 [2]: 7.05 ± 1.1 µM

Compound: CCN1C(=O)C(=C2Oc3ccc(Cl)cc3C2=O)c2ccccc21 [Compound 19]
- IC50 [1]: 8 ± 1.5 µM
- IC50 [2]: 16 ± 1.5 µM

Compound: CCN1C(=O)C(=C2Oc3ccc(Cl)cc3C2=O)c2cccc(F)c21 [Compound 20]
- IC50 [1]: 12 ± 1.4 µM
- IC50 [2]: 1.8 ± 1 µM

Compound: CCN1C(=O)C(=C2Oc3ccc(Cl)cc3C2=O)c2cc(Cl)ccc21 [Compound 21]
- IC50 [1]: 12 ± 1.9 µM
- IC50 [2]: 4 ± 2.4 µM

Compound: CCN1C(=O)C(=C2Oc3ccc(Cl)cc3C2=O)c2ccc(Cl)cc21 [Compound 22]
- IC50 [1]: 7.1 ± 1.1 µM
- IC50 [2]: 2.7 ± 1.2 µM

Compound: CC(C)N1C(=O)C(=C2Oc3ccc(Cl)cc3C2=O)c2cc(Cl)ccc21 [Compound 23]
- IC50 [1]: 6.9 ± 0.8 µM
- IC50 [2]: 3.1 ± 0.8 µM

Compound: CC(C)N1C(=O)C(=C2Oc3ccc(Cl)cc3C2=O)c2ccc(Cl)cc21 [Compound 24]
- IC50 [1]: 12.1 ± 0.9 µM
- IC50 [2]: 3.8 ± 1.5 µM

Compound: O=C1Nc2ccccc2C1=C1Oc2ccccc2C1=NO [Compound 25]
- IC50 [1]: 5 ± 0.9 µM
- IC50 [2]: 3.7 ± 0.9 µM

Compound: O=C1Nc2c(F)cccc2C1=C1Oc2ccccc2C1=NO [Compound 26]
- IC50 [1]: 29 ± 1.8 µM
- IC50 [2]: 5.4 ± 0.6 µM

Compound: CCN1C(=O)C(=C2Oc3ccccc3C2=NO)c2ccccc21 [Compound 27]
- IC50 [1]: 19 ± 1.1 µM
- IC50 [2]: 7.1 ± 0.7 µM

Compound: CCN1C(=O)C(=C2Oc3ccccc3C2=NO)c2cccc(F)c21 [Compound 28]
- IC50 [1]: 30 ± 1.5 µM
- IC50 [2]: 7 ± 1.3 µM

Compound: CCN1C(=O)C(=C2Oc3ccccc3C2=NO)c2cc(Cl)ccc21 [Compound 29]
- IC50 [1]: 7.7 ± 1.2 µM
- IC50 [2]: 3.6 ± 0.2 µM

Compound: CCN1C(=O)C(=C2Oc3ccccc3C2=NO)c2ccc(Cl)cc21 [Compound 30]
- IC50 [1]: 3 ± 0.5 µM
- IC50 [2]: 3.8 ± 0.5 µM

Compound: CCN1C(=O)C(=C2Oc3ccccc3C2=NO)c2cc(C)ccc21 [Compound 31]
- IC50 [1]: 2.8 ± 0.4 µM
- IC50 [2]: 1.2 ± 0.8 µM

Compound: CC(C)N1C(=O)C(=C2Oc3ccccc3C2=NO)c2ccccc21 [Compound 32]
- IC50 [1]: 12.8 ± 1.6 µM
- IC50 [2]: 10.5 ± 1.3 µM

Compound: O=C1C(=C2Oc3ccccc3C2=NO)c2ccccc2N1C1OC(CO)C(O)C1O (centres unmarked) [Compound 33]
- IC50 [1]: 21 ± 0.9 µM
- IC50 [2]: 14.8 ± 1.2 µM

Compound: CC(C)N1C(=O)C(=C2Oc3ccccc3C2=NO)c2cccc(F)c21 [Compound 34]
- IC50 [1]: 51.1 ± 2.6 µM
- IC50 [2]: 14.1 ± 1.5 µM

Compound: CC(C)N1C(=O)C(=C2Oc3ccccc3C2=NO)c2cc(Cl)ccc21 [Compound 35]
- IC50 [1]: 29.2 ± 1.4 µM
- IC50 [2]: 17.5 ± 1.8 µM

Compound: CC(C)N1C(=O)C(=C2Oc3ccccc3C2=NO)c2ccc(Cl)cc21 [Compound 36]
- IC50 [1]: 31.5 ± 1.8 µM
- IC50 [2]: 10 ± 0.6 µM

Compound: Cc1ccc2c(c1)C(=C1Oc3ccccc3C1=NO)C(=O)N2C(C)C [Compound 37]
- IC50 [1]: 41 ± 1.7 µM
- IC50 [2]: 9 ± 2.1 µM

Compound: O=C1C(=C2Oc3ccccc3C2=NO)c2ccccc2N1Cc1ccccc1 [Compound 38, N1-benzyl-1′-oxo-indirubin-3′-oxime]
- IC50 [1]: 32.2 ± 1.5 µM
- IC50 [2]: 9.05 ± 1.4 µM

Compound: O=C1C(=C2Oc3ccccc3C2=NO)c2cc(F)ccc2N1Cc1ccccc1 [Compound 39]
- IC50 [1]: 19 ± 2.1 µM
- IC50 [2]: 33 ± 2.9 µM

Compound: O=C1C(=C2Oc3ccccc3C2=NO)c2cc(Cl)ccc2N1Cc1ccccc1 [Compound 40]
- IC50 [1]: > 100 µM
- IC50 [2]: 14 ± 1.2 µM

Compound: Cc1ccc2c(c1)C(=C1Oc3ccccc3C1=NO)C(=O)N2Cc1ccccc1 [Compound 41]
- IC50 [1]: 45 ± 3 µM
- IC50 [2]: 8.3 ± 1.7 µM

Compound: CCN1C(=O)C(=C2Oc3ccccc3C2=NO)c2cc(F)ccc21 [Compound 42]
- IC50 [1]: 28 ± 2.5 µM
- IC50 [2]: 15 ± 1.2 µM

Compound: CCN1C(=O)C(=C2Oc3ccc(Cl)cc3C2=NO)c2ccccc21 [Compound 43]
- IC50 [1]: 42 ± 4.2 µM
- IC50 [2]: 14 ± 1.7 µM

Compound: CCN1C(=O)C(=C2Oc3ccc(Cl)cc3C2=NO)c2cccc(F)c21 [Compound 44]
- IC50 [1]: > 100 µM
- IC50 [2]: > 100 µM

Compound: CCN1C(=O)C(=C2Oc3ccc(Cl)cc3C2=NO)c2cc(Cl)ccc21 [Compound 45]
- IC50 [1]: 3.6 ± 0.2 µM
- IC50 [2]: 4.8 ± 0.6 µM

Compound: CCN1C(=O)C(=C2Oc3ccc(Cl)cc3C2=NO)c2ccc(Cl)cc21 [Compound 46]
- IC50 [1]: 3.8 ± 0.5 µM
- IC50 [2]: 3.4 ± 0.7 µM

Compound: CC(C)N1C(=O)C(=C2Oc3ccccc3C2=NO)c2cc(Cl)ccc21 [Compound 47]
- IC50 [1]: 1.6 ± 0.8 µM
- IC50 [2]: 1.7 ± 0.8 µM

Compound: CC(C)N1C(=O)C(=C2Oc3ccc(Cl)cc3C2=NO)c2ccc(Cl)cc21 [Compound 48]
- IC50 [1]: 2.6 ± 0.4 µM
- IC50 [2]: 1.9 ± 0.4 µM

Compound: CON=C1C(=C2C(=O)Nc3ccccc32)Oc2ccccc21 [Compound 49]
- IC50 [1]: 4.8 ± 0.7 µM
- IC50 [2]: 9.5 ± 0.6 µM

Compound: CON=C1C(=C2C(=O)Nc3c(F)cccc32)Oc2ccccc21 [Compound 50]
- IC50 [1]: 2.9 ± 0.5 µM
- IC50 [2]: 7.7 ± 1.2 µM

Compound: CCN1C(=O)C(=C2Oc3ccccc3C2=NOC)c2ccccc21 [Compound 51]
- IC50 [1]: 1.7 ± 0.6 µM
- IC50 [2]: 3.9 ± 0.5 µM

Compound: CCN1C(=O)C(=C2Oc3ccccc3C2=NOC)c2cccc(F)c21 [Compound 52]
- IC50 [1]: 2.1 ± 0.2 µM
- IC50 [2]: 2.8 ± 0.4 µM

Compound: CON=C1C(=C2C(=O)N(C3OC(CO)C(O)C(O)C3O)c3ccc(Cl)cc32)Oc2ccccc21 (centres unmarked) [Compound 53]
- IC50 [1]: 16 ± 1.5 µM
- IC50 [2]: 2.1 ± 0.5 µM

Compound: CON=C1C(=C2C(=O)N(C(C)C)c3cc(Cl)ccc32)Oc2ccccc21 [Compound 54]
- IC50 [1]: 1.8 ± 1.9 µM
- IC50 [2]: 12 ± 1.4 µM
